These results are taken from patent publication US9765067B2, “Thiophen-2-yl-pyridin-2-yl-1H-pyrazole-4-carboxylic acid derivatives and the use thereof as soluble guanylate cyclase activators” (Novartis AG, priority 2014, dated 2017).

A value given as a limit tells only on which side of the number the result lay.

For this assay, the target named is T1, soluble guanylate cyclase (human GUCYA3/GUCYB3) overexpressed in CHO cells (Homo sapiens, UniProt Q02108+Q02153).
T1 construct: expressed in transfected cells
T1 sequence (Q02108 1-690 partner): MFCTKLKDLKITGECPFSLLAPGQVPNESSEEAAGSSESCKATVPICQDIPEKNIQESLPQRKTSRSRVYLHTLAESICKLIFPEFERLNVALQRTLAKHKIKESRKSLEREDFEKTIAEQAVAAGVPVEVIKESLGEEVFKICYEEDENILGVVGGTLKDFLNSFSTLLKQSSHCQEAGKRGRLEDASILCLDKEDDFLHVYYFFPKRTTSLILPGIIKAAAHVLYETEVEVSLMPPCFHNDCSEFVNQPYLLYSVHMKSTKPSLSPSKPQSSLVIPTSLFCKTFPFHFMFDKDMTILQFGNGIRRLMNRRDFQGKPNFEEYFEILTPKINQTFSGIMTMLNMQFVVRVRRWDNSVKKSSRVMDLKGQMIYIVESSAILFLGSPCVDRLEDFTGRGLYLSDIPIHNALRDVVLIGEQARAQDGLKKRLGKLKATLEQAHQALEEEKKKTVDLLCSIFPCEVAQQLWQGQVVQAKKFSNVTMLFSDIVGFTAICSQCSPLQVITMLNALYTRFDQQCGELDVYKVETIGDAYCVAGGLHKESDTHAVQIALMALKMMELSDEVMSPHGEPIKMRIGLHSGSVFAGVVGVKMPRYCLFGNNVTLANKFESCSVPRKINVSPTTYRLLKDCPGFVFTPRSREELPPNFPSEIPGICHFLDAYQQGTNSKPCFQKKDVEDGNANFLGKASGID
T1 sequence (Q02153 1-619): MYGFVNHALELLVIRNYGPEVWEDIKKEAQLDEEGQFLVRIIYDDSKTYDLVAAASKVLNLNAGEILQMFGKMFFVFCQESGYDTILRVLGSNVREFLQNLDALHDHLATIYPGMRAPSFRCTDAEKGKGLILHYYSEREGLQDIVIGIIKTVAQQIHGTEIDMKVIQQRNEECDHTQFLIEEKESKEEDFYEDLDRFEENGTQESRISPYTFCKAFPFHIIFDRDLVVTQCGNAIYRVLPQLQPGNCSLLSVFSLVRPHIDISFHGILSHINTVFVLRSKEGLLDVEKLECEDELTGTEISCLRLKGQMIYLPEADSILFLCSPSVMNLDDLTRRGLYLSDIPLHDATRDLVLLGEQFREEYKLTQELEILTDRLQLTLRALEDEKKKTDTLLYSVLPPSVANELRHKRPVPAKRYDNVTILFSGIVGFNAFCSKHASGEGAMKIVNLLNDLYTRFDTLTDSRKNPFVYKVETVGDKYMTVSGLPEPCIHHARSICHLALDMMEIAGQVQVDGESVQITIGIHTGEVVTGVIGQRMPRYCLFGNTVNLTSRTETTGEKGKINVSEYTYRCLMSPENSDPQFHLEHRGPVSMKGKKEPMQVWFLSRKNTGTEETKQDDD
Put plainly: CHO cellular assay (cGMP production, HTRF). The class given is cell-based. The following applies: CHO K1 clone 8E10 overexpressing human sGC, Cisbio HTRF, 1 h room temperature, 1 mM IBMX, 20 uM ODQ, minimum quantification limit 0.5 nM. An outline of the steps: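 Stable CHO K1 clone expressing human GUCYA3/GUCYB3. Compounds applied 1 h at room temperature in HBSS, 0.1% BSA, 1 mM IBMX, 20 uM ODQ, 0.5% DMSO. cGMP measured by HTRF and interpolated from a standard curve; EC50 from 4-parameter sigmoidal fit.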
As to `CCc1csc(-c2cccc(-n3ncc(C(=O)O)c3C(F)(F)F)n2)c1COc1ccc(C2CCN(CC(F)(F)F)CC2)cc1C` [Example 18-6, 1-(6-(4-Ethyl-3-((2-methyl-4-(1-(2,2,2-trifluoroethyl)piperidin-4-yl)phenoxy)methyl)thiophen-2-yl)pyridin-2-yl)-5-(trifluoromethyl)-1H-pyrazole-4-carboxylic acid], the EC50 is 0.018 µM. Turning to `Cc1cc(C2CCN(C(=O)C3CC3)CC2)ccc1NCc1c(C)csc1-c1cccc(-n2ncc(C(=O)O)c2C(F)(F)F)n1` [Example 19, 1-(6-(3-(((4-(1-(Cyclopropanecarbonyl)piperidin-4-yl)-2-methylphenyl)amino)methyl)-4-methylthiophen-2-yl)pyridin-2-yl)-5-(trifluoromethyl)-1H-pyrazole-4-carboxylic acid], a half-maximal effect (EC50) was put at 0.001 µM. The result for `Cc1csc(-c2cccc(-n3ncc(C(=O)O)c3C(F)(F)F)n2)c1CNc1ccc(C2CCN(C(=O)C3CC3)CC2)cc1` [Example 20-1, 1-(6-(3-(((4-(1-(Cyclopropanecarbonyl)piperidin-4-yl)phenyl)amino)methyl)-4-methylthiophen-2-yl)pyridin-2-yl)-5-(trifluoromethyl)-1H-pyrazole-4-carboxylic acid] reads 0.012 µM.

For `CCc1c(C(=O)O)cnn1-c1cccc(-c2sc(C)c(C)c2CNc2ccc(C3CCN(C(=O)C4CC4)CC3)cc2C)n1` [Example 20-2, 1-(6-(3-(((4-(1-(Cyclopropanecarbonyl)piperidin-4-yl)-2-methylphenyl)amino)methyl)-4,5-dimethylthiophen-2-yl)pyridin-2-yl)-5-ethyl-1H-pyrazole-4-carboxylic acid], the EC50 is ≤ 0.0005 µM. `Cc1cc(C2CCN(CC(F)(F)F)CC2)ccc1NCc1c(C)csc1-c1cccc(-n2ncc(C(=O)O)c2C(F)(F)F)n1` [Example 20-3, 1-(6-(4-Methy1-3-(((2-methy1-4-(1-(2,2,2-trifluoroethyl)piperidin-4-yl)phenyl)amino)methyl)thiophen-2-yl)pyridin-2-yl)-5-(trifluoromethyl)-1H-pyrazole-4-carboxylic acid] registered an EC50 of 0.039 µM. As for `CCC(=O)N1CCC(c2ccc(OCc3cc(C)sc3-c3cccc(-n4ncc(C(=O)O)c4C(F)(F)F)n3)c(C)c2)CC1` [Example 21, 1-(6-(5-Methyl-3-((2-methyl-4-(1-propionylpiperidin-4-yl)phenoxy)methyl)thiophen-2-yl)pyridin-2-yl)-5-(trifluoromethyl)-1H-pyrazole-4-carboxylic acid], the figure is ≤ 0.0005 µM; as for `CCc1cc(COc2ccc(C3CCN(C(=O)C4CC4)CC3)cc2C)c(-c2cccc(-n3ncc(C(=O)O)c3C(F)(F)F)n2)s1` [Example 22-1, 1-(6-(3-((4-(1-(Cyclopropanecarbonyl)piperidin-4-yl)-2-methylphenoxy)methyl)-5-ethylthiophen-2-yl)pyridin-2-yl)-5-(trifluoromethyl)-1H-pyrazole-4-carboxylic acid], 0.002 µM. As for `O=C(O)c1cnn(-c2cccc(-c3sccc3COc3ccc4c(c3)CCN(Cc3ccccn3)C4)n2)c1C(F)(F)F` [Example 23, 1-(6-(3-(((2-(Pyridin-2-ylmethyl)-1,2,3,4-tetrahydroisoquinolin-6-yl)oxy)methyl)thiophen-2-yl)pyridin-2-yl)-5-(trifluoromethyl)-1H-pyrazole-4-carboxylic acid], the figure is 0.038 µM; as for `CCc1cc(NCc2cc(C)sc2-c2cccc(-n3ncc(C(=O)O)c3C(F)(F)F)n2)ccc1C1CCN(C(=O)C2CC2)CC1` [Example 24, 1-(6-(3-(((4-(1-(Cyclopropanecarbonyl)piperidin-4-yl)-3-ethylphenyl)amino)methyl)-5-methylthiophen-2-yl)pyridin-2-yl)-5-(trifluoromethyl)-1H-pyrazole-4-carboxylic acid], 0.006 µM; as for `Cc1cc(CCc2ccc(C3CCN(C(=O)C4CC4)CC3)cc2C)c(-c2cccc(-n3ncc(C(=O)O)c3C(F)(F)F)n2)s1` [Example 25, 1-(6-(3-(4-(1-(Cyclopropanecarbonyl)piperidin-4-yl)-2-methylphenethyl)-5-methylthiophen-2-yl)pyridin-2-yl)-5-(trifluoromethyl)-1H-pyrazole-4-carboxylic acid], ≤ 0.0005 µM. On to `Cc1cc(C2CCN(C(=O)C3CC3)CC2)ccc1CCc1ccsc1-c1cccc(-n2ncc(C(=O)O)c2C(F)(F)F)n1` [Example 26, 1-(6-(3-(4-(1-(Cyclopropanecarbonyl)piperidin-4-yl)-2-methylphenethyl)thiophen-2-yl)pyridin-2-yl)-5-(trifluoromethyl)-1H-pyrazole-4-carboxylic acid], for which the concentration for a half-maximal effect (EC50) is ≤ 0.0005 µM.

Turning to `O=C(O)c1cnn(-c2cccc(-c3sccc3CCc3ccc(C4CCN(C(=O)C5CC5)CC4)cc3)n2)c1C(F)(F)F` [Example 27, 1-(6-(3-(4-(1-(Cyclopropanecarbonyl)piperidin-4-yl)phenethyl)thiophen-2-yl)pyridin-2-yl)-5-(trifluoromethyl)-1H-pyrazole-4-carboxylic acid], the EC50 is ≤ 0.0005 µM. The result for `O=C(O)c1cnn(-c2cccc(-c3sccc3CNc3ccc(C4CCN(C(=O)C5CC5)CC4)cc3)n2)c1C(F)(F)F` [Example 28, 1-(6-(3-(((4-(1-(Cyclopropanecarbonyl)piperidin-4-yl)phenyl)amino)methyl)thiophen-2-yl)pyridin-2-yl)-5-(trifluoromethyl)-1H-pyrazole-4-carboxylic acid] reads 0.0045 µM. `Cc1cc(C2CCN(C3COC3)CC2)ccc1OCc1ccsc1-c1cccc(-n2ncc(C(=O)O)c2C(F)(F)F)n1` [Example 29, 1-(6-(3-((2-Methyl-4-(1-(oxetan-3-yl)piperidin-4-yl)phenoxy)methyl)thiophen-2-yl)pyridin-2-yl)-5-(trifluoromethyl)-1H-pyrazole-4-carboxylic acid] registered an EC50 of 0.067 µM.

Compound `Cc1cc(COc2ccc(C3CCN(C(=O)C4CC4)CC3)c(CO)c2)c(-c2cccc(-n3ncc(C(=O)O)c3C(F)(F)F)n2)s1` [Example 30, 1-(6-(3-((4-(1-(Cyclopropanecarbonyl)piperidin-4-yl)-3-(hydroxymethyl)phenoxy)methyl)-5-methylthiophen-2-yl)pyridin-2-yl)-5-(trifluoromethyl)-1H-pyrazole-4-carboxylic acid] showed an EC50 of 0.061 µM. The result for `CCC(=O)N1CCC(c2ccc(COc3ccsc3-c3cccc(-n4ncc(C(=O)O)c4C(F)(F)F)n3)cc2)CC1` [Example 31, 1-(6-(3-((4-(1-Propionylpiperidin-4-yl)benzyl)oxy)thiophen-2-yl)pyridin-2-yl)-5-(trifluoromethyl)-1H-pyrazole-4-carboxylic acid] reads 0.013 µM; that for `Cc1cc(COc2ccc(C3CCN(C(=O)C4CC4)CC3)cc2C(F)(F)F)c(-c2cccc(-n3ncc(C(=O)O)c3C(F)(F)F)n2)s1` [Example 32, 1-(6-(3-((4-(1-(Cyclopropanecarbonyl)piperidin-4-yl)-2-(trifluoromethyl)phenoxy)methyl)-5-methylthiophen-2-yl)pyridin-2-yl)-5-(trifluoromethyl)-1H-pyrazole-4-carboxylic acid], ≤ 0.0005 µM; that for `O=C(O)c1cnn(-c2cccc(-c3sccc3COc3ccc(C4CCN(C(=O)C5CC5)CC4)cc3C(F)(F)F)n2)c1C(F)(F)F` [Example 33-1, 1-(6-(3-((4-(1-(Cyclopropanecarbonyl)piperidin-4-yl)-2-(trifluoromethyl)phenoxy)methyl)thiophen-2-yl)pyridin-2-yl)-5-(trifluoromethyl)-1H-pyrazole-4-carboxylic acid], 0.023 µM.
